Activity data for four compounds are collected here from ChEMBL document CHEMBL1240391, “High prevalence of ST131 isolates producing CTX-M-15 and CTX-M-14 among extended-spectrum-beta-lactamase-producing Escherichia coli isolates from Canada” (2010).

Format in all cases: functional
The test system of test [1] is Escherichia coli. As to the kind of experiment: Antimicrobial activity against Escherichia coli assessed as nonsusceptible isolates by CLSI method.
Test [2] has as its system Escherichia coli. As to the kind of experiment: Antimicrobial activity against ESBL producing Escherichia coli assessed as nonsusceptible isolates by CLSI method.
Test [3] concerns Escherichia coli. As to the kind of experiment: Antimicrobial activity against CTX-M15/CTX-M14 ESBL producing Escherichia coli ST131 clonal complex isolate assessed as nonsusceptible isolates by CLSI method.

Turning to `NCC[C@H](O)C(=O)N[C@@H]1C[C@H](N)[C@@H](O[C@H]2O[C@H](CN)[C@@H](O)[C@H](O)[C@H]2O)[C@H](O)[C@H]1O[C@H]1O[C@H](CO)[C@@H](O)[C@H](N)[C@H]1O` [AMIKACIN], the Activity was found to be 39% in the test with Escherichia coli [1], 35% with Escherichia coli [2] and 45% with Escherichia coli [3].

Turning to `O=C1CN(/N=C/c2ccc([N+](=O)[O-])o2)C(=O)N1` [NITROFURANTOIN], the Activity came to 8% in the test with Escherichia coli [1], 12% in the test on Escherichia coli [2] and 4% with Escherichia coli [3].

On to `NC[C@H]1O[C@H](O[C@H]2[C@H](O)[C@@H](O[C@H]3O[C@H](CO)[C@@H](O)[C@H](N)[C@H]3O)[C@H](N)C[C@@H]2N)[C@H](N)C[C@@H]1O` [TOBRAMYCIN], for which the Activity in the test on Escherichia coli [1] is listed as 69%; in the test with Escherichia coli [2], 49%; in the test with Escherichia coli [3], 93%.

In the case of GENTAMICIN, the Activity with Escherichia coli [1] worked out at 50%; in the test with Escherichia coli [2] it was 35%; in the test on Escherichia coli [3], 67%.
